Holding throughout (type): biochemical
For assay [1], the target named is T1, mouse PDGF-β receptor tyrosine kinase (Mus musculus, UniProt P05622).
T1 construct: a fragment of DNA that codes for the intracellular tyrosine kinase domain; made in house; host or cells: Sf9 insect cells (baculovirus), cell lysate
Nature of the assay: PDGF receptor tyrosine kinase assay. Conditions: for IC50: read-out: Inhibition of Protein Tyrosine Kinases, PDGF, IC50; for inhibition at 50 µM: read-out: Inhibition of Protein Tyrosine Kinases, PDGF, % Inhibition. The text has this:
(§1) PDGF and FGF Receptor Tyrosine Kinase Assays
(§2) Full length cDNAs for the mouse PDGF-β and human FGF-1 (flg) receptor tyrosine kinases were obtained from J. Escobedo and prepared as described in J. Biol. Chem., 262:1482-1487 (1991), and PCR primers were designed to amplify a fragment of DNA that codes for the intracellular tyrosine kinase domain. The fragment was melded into a baculovirus vector, cotransfected with AcMNPV DNA, and the recombinant virus isolated. SF9 insect cells were infected with the virus to overexpress the protein, and the cell lysate was used for the assay. […] Briefly, to each well was added 82.5 μL of incubation buffer containing 25 mM Hepes (pH 7.0), 150 mM NaCl, 0.1% Triton X-100, 0.2 mM PMSF, 0.2 mM Na3 VO4, 10 mM MnCl2, and 750 μg/mL of Poly (4:1) glutamate-tyrosine followed by 2.5 μL of inhibitor and 5 μL of enzyme lysate (7.5 μg/μL FGF-TK or 6.0 μg/μL PDGF-TK) to initiate the reaction. Following a 10 minute incubation at 25° C., 10 μL of γ^32 P-ATP (0.4 μCi plus 50 μM ATP) was added to each well and samples were incubated for an additional 10 minutes at 25° C. The reaction was terminated by the addition of 100 μL of 30% trichloroacetic acid (TCA) containing 20 mM sodium pyrophosphate and precipitation of material onto glass fiber filter mats (Wallac). […] Nonspecific activity was defined as radioactivity retained on the filters following incubation of samples with buffer alone (no enzyme). Specific enzymatic activity was defined as total activity (enzyme plus buffer) minus nonspecific activity.

The target in assay [2] is T2, human FGF-1 (flg) receptor tyrosine kinase (Homo sapiens, UniProt P11362).
T2 construct: a fragment of DNA that codes for the intracellular tyrosine kinase domain; made in house; host or cells: Sf9 insect cells (baculovirus), cell lysate
T2 sequence (P11362 478-767 limits assumed): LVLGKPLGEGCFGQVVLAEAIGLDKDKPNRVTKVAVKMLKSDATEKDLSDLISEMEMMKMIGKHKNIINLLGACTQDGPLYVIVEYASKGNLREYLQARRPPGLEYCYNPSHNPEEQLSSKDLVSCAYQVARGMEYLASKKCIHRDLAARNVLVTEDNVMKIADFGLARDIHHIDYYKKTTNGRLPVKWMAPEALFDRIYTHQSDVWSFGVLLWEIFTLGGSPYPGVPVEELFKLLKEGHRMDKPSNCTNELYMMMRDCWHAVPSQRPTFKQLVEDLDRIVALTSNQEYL
Nature of the assay: FGF receptor tyrosine kinase assay. As to conditions: for IC50: read-out: Inhibition of Protein Tyrosine Kinases, FGF, IC50; for inhibition at 50 µM: read-out: Inhibition of Protein Tyrosine Kinases, FGF, % Inhibition.
Description: as §1, §2

In a further assay the target is T3, C-src kinase (Homo sapiens, UniProt P12931).
T3 construct: made in house; host or cells: baculovirus-infected insect cells
T3 sequence (P12931 whole entry): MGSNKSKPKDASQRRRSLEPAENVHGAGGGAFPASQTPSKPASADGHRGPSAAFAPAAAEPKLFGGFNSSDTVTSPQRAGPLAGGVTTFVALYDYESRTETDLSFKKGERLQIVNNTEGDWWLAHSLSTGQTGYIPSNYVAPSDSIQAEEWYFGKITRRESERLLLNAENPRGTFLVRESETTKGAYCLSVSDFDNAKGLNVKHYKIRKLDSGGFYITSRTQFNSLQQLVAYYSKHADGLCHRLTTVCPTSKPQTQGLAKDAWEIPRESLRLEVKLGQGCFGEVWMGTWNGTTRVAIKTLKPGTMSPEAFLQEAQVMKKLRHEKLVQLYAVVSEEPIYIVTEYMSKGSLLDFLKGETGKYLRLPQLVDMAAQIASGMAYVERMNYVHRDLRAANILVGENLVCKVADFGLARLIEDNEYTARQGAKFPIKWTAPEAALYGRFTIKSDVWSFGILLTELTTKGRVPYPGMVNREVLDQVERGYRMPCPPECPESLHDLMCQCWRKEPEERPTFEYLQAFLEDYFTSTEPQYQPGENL
Nature of the assay: C-src kinase assay. Conditions: for inhibition at 50 µM: read-out: Inhibition of Protein Tyrosine Kinases, C-src, % Inhibition. The method, then: V-src and C-src Kinase Assays
V-src or C-src kinase is purified from baculovirus infected insect cell lysates using an antipeptide monoclonal antibody directed against the N-terminal 2-17 amino acids. The antibody, covalently linked to 0.65-μm latex beads, is added to a suspension of insect cell lysis buffer comprised of 150 mM NaCl, 50 mM Tris pH 7.5, 1 mM DTT, 1% NP-40, 2 mM EGTA, 1 mM sodium vanadate, 1 mM PMSF, 1 μg/mL each of leupeptin, pepstatin, and aprotinin. […] At the end of the lysate incubation, the beads are rinsed 3 times in lysis buffer, resuspended in lysis buffer containing 10% glycerol, and frozen. These latex beads are thawed, rinsed three times in assay buffer which is comprised of 40 mM tris pH 7.5, 5 mM MgCl2, and suspended in the same buffer. In a Millipore 96-well plate with a 0.65 μm polyvinylidine membrane bottom are added the reaction components: 10-μL v-src or c-src beads, 10 μL of 2.5 mg/mL poly GluTyr substrate, 5 μM ATP containing 0.2 μCi labeled ^32 P-ATP, 5μL DMSO containing inhibitors or as a solvent control, and buffer to make the final volume 125 μL. The reaction is started at room temperature by addition of the ATP and quenched 10 minutes later by the addition of 125 μL of 30% TCA, 0.1M sodium pyrophosphate for 5 minutes on ice. The plate is then filtered and the wells washed with two 250-μL aliquots of 15% TCA, 0.1M pyrophosphate. The filters are punched, counted in a liquid scintillation counter, and the data examined for inhibitory activity in comparison to a known inhibitor such as erbstatin. The method is described more fully in J. Med. Chem., 37:598-609 (1994).

The mark [3] stands for this setting: read-out: Inhibition of Protein Tyrosine Kinases, C-src, IC50.

Read-outs that look alike come from different tables or passages of the source.

T1 sequence (P05622 599-961 limits assumed): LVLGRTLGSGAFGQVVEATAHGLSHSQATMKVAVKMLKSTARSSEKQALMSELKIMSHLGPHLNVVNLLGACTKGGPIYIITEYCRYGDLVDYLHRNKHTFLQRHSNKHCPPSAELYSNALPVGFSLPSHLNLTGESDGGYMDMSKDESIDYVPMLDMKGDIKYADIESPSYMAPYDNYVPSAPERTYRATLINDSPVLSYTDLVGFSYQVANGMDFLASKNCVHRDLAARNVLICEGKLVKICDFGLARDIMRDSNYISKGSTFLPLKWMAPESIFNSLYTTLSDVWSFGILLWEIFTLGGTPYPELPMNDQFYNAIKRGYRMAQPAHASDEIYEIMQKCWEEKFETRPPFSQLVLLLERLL

With `Cc1cccc(-c2cc3cnc(N)nc3nc2NC(=O)NC(C)(C)C)c1C` [Example 93, 1-[2-Amino-6-(2,3-dimethyl-phenyl)-pyrido[2,3-d]pyrimidin-7-yl]-3-tert-butyl-urea], the IC50 – broadly, the point on the concentration scale where inhibition reaches its midpoint – in assay [1] worked out at 6050 nM; in assay [2], 343 nM; on C-src kinase (setting [3]) it was 4170 nM. For the compound `Cc1cc(C)cc(-c2cc3cnc(N)nc3nc2NC(=O)NC(C)(C)C)c1` [Example 95, 1-[2-Amino-6-(3,5-dimethyl-phenyl)-pyrido[2,3-d]pyrimidin-7-yl]-3-tert-butyl-urea], the values for the IC50 in assay [1] and in assay [2] were 41600 nM and 605 nM, respectively. In addition, at C-src kinase, the inhibition (in general, the drop in the measured response relative to a control, in per cent) at 50 µM was 0%. In the case of `CN1CCN(CCCNc2ncc3cc(-c4c(Cl)cccc4Cl)c(NC(=O)NC4CCCCC4)nc3n2)CC1` [Example 37, 1-Cyclohexyl-3-{6-(2,6-dichlorophenyl)-2-[3-(4-methyl-piperazin-1-yl)-propylamino]-pyrido[2,3-d]pyrimidin-7-yl}-urea], the inhibition at 50 µM at C-src kinase was found to be 106%. On to `Nc1ncc2cc(-c3ccncc3)c(N)nc2n1` [Example 109, 6-Pyridin-4-yl-pyrido[2,3-d]pyrimidine-2,7-diamine], for which the inhibition at 50 µM in assay [1] stood at 23.6%; in assay [2], 10.3%.

Regarding `Nc1ncc2cc(-c3c(Br)cccc3Br)c(N)nc2n1` [Example 60, 6-(2,6-Dibromo-phenyl)-pyrido[2,3-d]pyrimidine-2,7-diamine], the IC50 in assay [2] amounted to 13000 nM; against C-src kinase it was 1570 nM. On to `CN1CCN(CCCNc2ncc3cc(-c4c(Cl)cccc4Cl)c(NC(=O)NCc4ccccc4)nc3n2)CC1` [Example 39, 1-Benzyl-3-{6-(2,6-dichlorophenyl)-2-[3-(4-methyl-piperazin-1-yl)-propylamino]-pyrido[2,3-d]pyrimidin-7-yl}-urea], for which, at C-src kinase (setting [3]), the IC50 amounted to 21 nM.

Turning to `CN1CCN(CCCNc2ncc3cc(-c4c(Cl)cccc4Cl)c(NC4=NCCCO4)nc3n2)CC1` [Example 35, 6-(2,6-Dichlorophenyl)-N^7-(5,6-dihydro-4H-[1,3]oxazin-2-yl)-N^2-[3-(4-methyl-piperazin-1-yl)-propyl]-pyrido[2,3-d]pyrimidine-2,7-diamine], in assay [1], the IC50 is 2080 nM. The inhibition at 50 µM in assay [2] is 97.9%. On to `CN1CCN(CCCCNc2ncc3cc(-c4c(Cl)cccc4Cl)c(NC(=O)NC(C)(C)C)nc3n2)CC1` [Example 34, 1-tert-Butyl-3-{6-(2,6-dichlorophenyl)-2-[4-(4-methyl-piperazin-1-yl)-butylamino]-pyrido[2,3-d]pyrimidin-7-yl}-urea], for which the IC50 in assay [1] worked out at 349 nM; at C-src kinase (setting [3]), 11 nM. For `Cc1cc(C)c(C)c(-c2cc3cnc(N)nc3nc2NC(=O)NC(C)(C)C)c1C` [Example 99, 1-[2-Amino-6-(2,3,5,6-tetramethyl-phenyl)-pyrido[2,3-d]pyrimidin-7-yl]-3-tert-butyl-urea], on C-src kinase, the inhibition at 50 µM is 17.1%. Turning to `COc1cccc(NC(=O)Nc2nc3nc(NCCCN4CCN(C)CC4)ncc3cc2-c2c(Cl)cccc2Cl)c1` [Example 42, 1-{6-(2,6-Dichlorophenyl)-2-[3-(4-methyl-piperazin-1-yl)-propylamino]-pyrido[2,3-d]pyrimidin-7-yl}-3-(3-methoxy-phenyl)-urea], the IC50 in assay [1] is 624 nM; at C-src kinase (setting [3]), 32 nM. For the compound `CN1CCN(CCCNc2ncc3cc(-c4c(Cl)cccc4Cl)c(NC(=O)Nc4cccc5ccccc45)nc3n2)CC1` [Example 50, 1-{6-(2,6-Dichlorophenyl)-2-[3-(4-methyl-piperazin-1-yl)-propylamino]-pyrido[2,3-d]pyrimidin-7-yl}-3-naphthalen-1-yl-urea], the IC50 in assay [1] came out at 2600 nM; in assay [2] it was 305 nM. Consider `Cc1cc(C)cc(-c2cc3cnc(N)nc3nc2N)c1` [Example 94, 6-(3,5-Dimethyl-phenyl)-pyrido[2,3-d]pyrimidine-2,7-diamine], for which the inhibition at 50 µM in assay [1] was found to be 11.5%. Also, the IC50 in assay [2] came to 17600 nM. With `Nc1ncc2cc(-c3c(Cl)cccc3Br)c(N)nc2n1` [Example 104, 6-(2-Bromo-6-chloro-phenyl)-pyrido[2,3-d]pyrimidine-2,7-diamine], the figures for the IC50 in assay [1] and in assay [2] were 36700 nM and 5320 nM, respectively.

On to `C=CCNC(=O)Nc1nc2nc(NCCCN3CCN(C)CC3)ncc2cc1-c1c(Cl)cccc1Cl` [Example 40, 1-Allyl-3-{6-(2,6-dichlorophenyl)-2-[3-(4-methyl-piperazin-1-yl)-propylamino]-pyrido[2,3-d]pyrimidin-7-yl}-urea], for which the IC50 in assay [1] was 697 nM; in assay [2], 57.4 nM.

For the compound `Cc1cc(C)c(C)c(-c2cc3cnc(NCCCN4CCN(C)CC4)nc3nc2NC(=O)NC(C)(C)C)c1C` [Example 121, 1-tert-Butyl-3-{2-[3-(4-methyl-piperazin-1-yl)-propylamino]-6-(2,3,5,6-tetramethyl-phenyl)-pyrido-[2,3-d]pyrimidin-7-yl}-urea], in assay [1], the inhibition at 50 µM amounted to 21.8%. For the same compound, in assay [2], the IC50 was 142 nM. Turning to `CC1CCCCN1CCCNc1ncc2cc(-c3c(Cl)cccc3Cl)c(NC(=O)NC(C)(C)C)nc2n1` (stereo not drawn) [Example 32, 1-tert-Butyl-3-{6-(2,6-dichlorophenyl)-2-[3-(2-methyl-piperidin-1-yl)-propylamino]-pyrido[2,3-d]pyrimidin-7-yl}-urea], the IC50 in assay [1] came out at 415 nM; on C-src kinase (setting [3]), 5000 nM. As for `CN1CCN(CCCNc2ncc3cc(-c4c(Cl)cccc4Cl)c(NC(=S)NC(C)(C)C)nc3n2)CC1` [Example 118, 1-tert-Butyl-3-{6-(2,6-dichlorophenyl)-2-[3-(4-methyl-piperazin-1-yl)-propylamino]-pyrido[2,3-d]pyrimidin-7-yl}-thiourea], the figures for the IC50 in assay [1] and in assay [2] were 1920 nM and 126 nM, respectively.

As for `CN(C)C=Nc1ncc2cc(-c3c(Cl)cccc3Cl)c(N=CN(C)C)nc2n1` [Example 80, N'-[6-(2,6-Dichlorophenyl)-7-[(dimethylamino)methylene-amino]-pyrido[2,3-d]pyrimidin-2-yl]-N,N-dimethylformamidine], the inhibition at 50 µM in assay [1] came out at 22.9%. In addition, the IC50 in assay [2] was 10200 nM. For the compound `CCN(CC)CCCCNc1ncc2cc(-c3c(Cl)cccc3Cl)c(NC(=S)NCCCN3CCOCC3)nc2n1` [Example 122, 1-[6-(2,6-Dichlorophenyl)-2-(4-diethylamino-butylamino)-pyrido[2,3-d]pyrimidin-7-yl]-3-(3-morpholin-4-yl-propyl)-thiourea], the IC50 in assay [1] turned out to be 1460 nM; in assay [2], 171 nM.

As for `Cc1cc(C)c(-c2cc3cnc(N)nc3nc2N)c(C)c1` [Example 96, 6-(2,4,6-Trimethyl-phenyl)-pyrido[2,3-d]pyrimidine-2,7-diamine], the figures for the IC50 in assay [1] and in assay [2] were 27400 nM and 3840 nM, respectively. Consider `COc1ccc(NC(=O)Nc2nc3nc(NCCCN4CCN(C)CC4)ncc3cc2-c2c(Cl)cccc2Cl)cc1` [Example 41, 1-{6-(2,6-Dichlorophenyl)-2-[3-(4-methyl-piperazin-1-yl)-propylamino]-pyrido[2,3-d]pyrimidin-7-yl}-3-(4-methoxy-phenyl)-urea], for which the IC50 at C-src kinase (setting [3]) amounted to 86 nM. With `CCN(CC)C(=O)Nc1nc2nc(NCCCN3CCN(C)CC3)ncc2cc1-c1c(Cl)cccc1Cl` [Example 119, 3-{6-(2,6-Dichlorophenyl)-2-[3-(4-methyl-piperazin-1-yl)-propylamino]-pyrido[2,3-d]pyrimidin-7-yl}-1,1-diethyl-urea], the IC50 in assay [1] is 62400 nM; in assay [2] it was 7710 nM.

For the origin of these results see patent US5733913A, “6-Aryl pyrido[2,3-d] pyrimidines and naphthyridines for inhibiting protein tyrosine kinase mediated cellular proliferation” (priority 1995, dated 1998).
